{"source": "patent US6476008B1", "about": "“Use of diphosphonic acids or the physiologically acceptable salts or esters thereof in the preventive treatment of after-effects resulting from enlargement or replacement of the bladder” (Roche Diagnostics GmbH, priority 1997, dated 2002)", "key": {"[1]": {"system": "female Sprague-Dawley rats augmented with excluded sigma", "test": "Prevention of osteopenia after bladder augmentation plasty, bone density by DEXA", "format": "in vivo, rat", "conditions": "daily s.c. ibandronic acid up to 20 μg P/kg, 4 months, monthly DEXA", "from_the_text": "Preventive effect of diphosphonates before the occurrence of osteopenia after augmentation plasty. Groups of 12 female Sprague-Dawley rats (6-8 week old, about […] body weight) were provided with stomach and ileum augmentation plasties and 12 animals were dummy-operated. At the same time, 24 animals were augmented with excluded sigma and divided at random into two groups, one group daily receiving a subcutaneous application of 0.9% NaCl (control) and the other group a daily subcutaneous application of ibandronic acid in the form of an aqueous solution in a dose up to 20 μg P/kg. The operative configuration of the augmentation plasties was after Lauvetz et al (J. Urol. 154: 899-902, 1995). The test period was 4 months, corresponding to about 4 years of human life (E. Grimm, Amer. J. Dig Dis. 7: 17-20, 1962)."}, "[2]": {"system": "rats with chronic kidney insufficiency and augmentation using gastrointestinal segments", "test": "Chronic kidney insufficiency plus augmentation plasty, bone mass", "format": "in vivo, rat", "conditions": "rats with CNI (5/6 nephrectomy) and augmentation plasty, ibandronate administration", "from_the_text": "In order to increase the clinical relevance of the results, the test procedure of Example 2 was repeated on rats with chronic kidney insufficiency. This test arrangement is based on a frequent situation among human beings in which a bladder previously damaged by an existing disturbance in urine transport (reflux or obstruction) leads to kidney insufficiency as a secondary result. It is known that kidney insufficiency in itself results in a disturbance in bone mineralisation (renal osteopathy), so that the need for a bladder extension plasty using segments of intestine further increases the risk of disturbed mineralisation. Kidney insufficiency was induced by 5/6 nephrectomy (compare Example 2). The other test procedure was as in Example 1."}}, "data": [{"molecule": "CCCCCN(C)CCC(O)(P(=O)(O)O)P(=O)(O)O", "note": "[ibandronate, 1-hydroxy-3-(N-methyl-N-pentyl)aminopropylidene-1,1-diphosphonic acid]", "values": [{"measurement": "reduction in bone mass (DEXA bone density, lumbar vertebrae)", "setting": "[1]", "result": "no reduction in bone mass"}, {"measurement": "reduction in bone mass", "setting": "[2]", "result": "reduction in bone mass was prevented"}]}]}
